Assay [1] deals with Candida albicans. The assay is described as follows: Antimicrobial activity against Candida albicans SC5314. In kind it is functional.
In assay [2] the test system is HepG2. The assay is described as follows: Cytotoxicity against human HepG2 cells after 48 hrs by MTT assay. The note with it: HepG2, 48 h. In kind it is functional, cell-based. Background: Tetrazolium assays rely on reduction of a dye to a coloured formazan, in cell work by metabolically active cells.
The subject of assay [3] is Bacillus subtilis. Kind of assay: Antimicrobial activity against Bacillus subtilis ATCC 6051. It is filed as functional.
Assay [4] relates to Staphylococcus aureus. The assay is described as follows: Antimicrobial activity against Staphylococcus aureus ATCC 6538. It is filed as functional.
In assay [5] the test system is Pseudomonas aeruginosa. The assay is described as follows: Antimicrobial activity against Pseudomonas aeruginosa PAO1. In kind it is functional.
Assay [6] concerns Staphylococcus aureus. Kind of assay: Antimicrobial activity against methicillin-resistant Staphylococcus aureus. It is filed as functional.
The test system of assay [7] is K562. Kind of assay: Cytotoxicity against human K562 cells after 48 hrs by MTT assay. In kind it is functional, cell-based. Particulars: K562, 48 h.
In assay [8] the test system is K562. The assay is described as follows: Induction of apoptosis in human K562 cells assessed as cell survival at 0.75 ug/ml after 5 hrs using annexin-V-FITC and propidium iodide staining by flow cytometry (reference value: 97.96%). It is filed as functional. The note with it: K562, 5 h, read-out: Activity. For orientation: Flow cytometry measures light scatter and fluorescence of single cells or particles in a stream.

Assay [9] concerns K562. The assay is described as follows: Induction of apoptosis in human K562 cells assessed as cell survival at 0.25 ug/ml after 5 hrs using annexin-V-FITC and propidium iodide staining by flow cytometry (reference value: 97.96%). It is filed as functional. Particulars: K562, 5 h, read-out: Activity.
Assay [10] concerns K562. The assay is described as follows: Induction of apoptosis in human K562 cells assessed as cell survival at 0.5 ug/ml after 5 hrs using annexin-V-FITC and propidium iodide staining by flow cytometry (reference value: 97.96%). It is filed as functional. The note with it: K562, 5 h, read-out: Activity.
The test system of assay [11] is K562. Kind of assay: Induction of apoptosis in human K562 cells assessed as viable cells at 2 ug/ml after 5 hrs using annexin-V-FITC and propidium iodide staining by flow cytometry (reference value: 99.86%). It is filed as functional. Particulars: K562, 5 h, read-out: Activity.
In assay [12] the test system is K562. The assay is described as follows: Induction of apoptosis in human K562 cells assessed as […] of Bcl-2 at 2 ug/ml after 4 hrs by Western blot analysis. In kind it is functional, cell-based.
Assay [13] deals with K562. Kind of assay: Induction of apoptosis in human K562 cells assessed as cell survival at 4 ug/ml after 5 hrs using annexin-V-FITC and propidium iodide staining by flow cytometry (reference value: 97.96%). In kind it is functional. The note with it: K562, 5 h, read-out: Activity.
In assay [14] the test system is K562. Kind of assay: Induction of apoptosis in human K562 cells assessed as viable cells at 2 ug/ml using annexin-V-FITC and propidium iodide staining by flow cytometry (reference value: 93.69%). It is filed as functional, cell-based. The note with it: TDE = time-dependent effect.
Assay [15] relates to K562. The assay is described as follows: Induction of apoptosis in human K562 cells assessed as viable cells at 4 ug/ml after 5 hrs using annexin-V-FITC and propidium iodide staining by flow cytometry (reference value: 99.86%). It is filed as functional. Particulars: K562, 5 h, read-out: Activity.
The subject of assay [16] is K562. Kind of assay: Induction of apoptosis in human K562 cells assessed as cell survival at 1 ug/ml after 5 hrs using annexin-V-FITC and propidium iodide staining by flow cytometry (reference value: 97.96%). In kind it is functional. The note with it: K562, 5 h, read-out: Activity.
For assay [17], the system named is K562. Kind of assay: Induction of apoptosis in human K562 cells assessed as cell survival at 1 ug/ml after 6 hrs using annexin-V-FITC and propidium iodide staining by flow cytometry (reference value: 97.89%). It is filed as functional. The note with it: K562, 6 h, read-out: Activity.
Assay [18] relates to K562. The assay is described as follows: Induction of apoptosis in human K562 cells assessed as viable cells at 1 ug/ml after 5 hrs using annexin-V-FITC and propidium iodide staining by flow cytometry (reference value: 99.86%). In kind it is functional. Particulars: K562, 5 h, read-out: Activity.
The test system of assay [19] is K562. Kind of assay: Induction of apoptosis in human K562 cells assessed as down regulation of c-Myc at 2 ug/ml after 3 hrs by Western blot analysis. In kind it is functional, cell-based.
The subject of assay [20] is K562. Kind of assay: Induction of apoptosis in human K562 cells assessed as cell survival at 1 ug/ml after 4 hrs using annexin-V-FITC and propidium iodide staining by flow cytometry (reference value: 97.89%). In kind it is functional. The note with it: K562, 4 h, read-out: Activity.
The subject of assay [21] is K562. The assay is described as follows: Induction of apoptosis in human K562 cells assessed as cell survival at 1 ug/ml after 2 hrs using annexin-V-FITC and propidium iodide staining by flow cytometry (reference value: 97.89%). It is filed as functional. The note with it: K562, 2 h, read-out: Activity.
For assay [22], the system named is K562. The assay is described as follows: Induction of apoptosis in human K562 cells assessed as cell survival at 1 ug/ml after 1 hr using annexin-V-FITC and propidium iodide staining by flow cytometry (reference value: 97.89%). The note with it: K562, 1 h, read-out: Activity. It is filed as functional.
For assay [23], the system named is K562. Kind of assay: Induction of apoptosis in human K562 cells assessed as viable cells at 0.5 ug/ml after 5 hrs using annexin-V-FITC and propidium iodide staining by flow cytometry (reference value: 99.86%). The note with it: K562, 5 h, read-out: Activity. It is filed as functional.
Assay [24] relates to K562. The assay is described as follows: Induction of apoptosis in human K562 cells assessed as viable cells at 0.75 ug/ml after 5 hrs using annexin-V-FITC and propidium iodide staining by flow cytometry (reference value: 99.86%). Particulars: K562, 5 h, read-out: Activity. In kind it is functional.
Assay [25] has as its system K562. The assay is described as follows: Induction of apoptosis in human K562 cells assessed as viable cells after 3 hrs using annexin-V-FITC and propidium iodide staining by flow cytometry (reference value: 93.69%). In kind it is functional, cell-based.
For assay [26], the system named is K562. The assay is described as follows: Induction of apoptosis in human K562 cells assessed as effect on Bcl-XL expression at 2 ug/ml after 4 hrs by Western blot analysis. In kind it is functional, cell-based. In general terms: Immunoblotting shows a protein as a band on a membrane.
Assay [27] concerns K562. The assay is described as follows: Induction of apoptosis in human K562 cells assessed as cell survival at 1 ug/ml after 8 hrs using annexin-V-FITC and propidium iodide staining by flow cytometry (reference value: 97.89%). In kind it is functional. The note with it: K562, 8 h, read-out: Activity.
The test system of assay [28] is K562. The assay is described as follows: Induction of apoptosis in human K562 cells assessed as viable cells at 2 ug/ml after 3 hrs using annexin-V-FITC and propidium iodide staining by flow cytometry (reference value: 93.69%). In kind it is functional. The note with it: K562, 3 h, read-out: Activity.
Assay [29] deals with K562. Kind of assay: Induction of apoptosis in human K562 cells assessed as cell survival at 2 ug/ml after 5 hrs using annexin-V-FITC and propidium iodide staining by flow cytometry (reference value: 97.96%). Particulars: K562, 5 h, read-out: Activity. It is filed as functional.

We go through 7 molecules from ChEMBL document CHEMBL2390897, “3-Anhydro-6-hydroxy-ophiobolin A, a new sesterterpene inhibiting the growth of methicillin-resistant Staphylococcus aureus and inducing the cell death by apoptosis on K562, from the phytopathogenic fungus Bipolaris oryzae” (Bioorg Med Chem Lett, 2013).

Molecules are shown by their SMILES. In brackets after ≈: the same amount, converted by molar mass. Activity calls are given as the source filed them. The rule behind the calls is not given here.

As a reminder, the MIC is the least concentration at which growth counts as inhibited. What is called IC50 is the concentration that inhibits the measured activity by half. Low readings indicate inhibition by little substance, high ones a need for much substance.

As to `CC(=O)N1CCN(c2ccc(OCC3COC(Cn4ccnc4)(c4ccc(Cl)cc4Cl)O3)cc2)CC1` (configuration not stated) [KETOCONAZOLE], the lowest concentration to inhibit growth in assay [1] (MIC) was 0.02 µg/mL (≈ 0.0376 µM).

Molecule `COc1cc([C@@H]2c3cc4c(cc3[C@@H](O[C@@H]3O[C@@H]5CO[C@@H](C)O[C@H]5[C@H](O)[C@H]3O)[C@H]3COC(=O)[C@H]23)OCO4)cc(OC)c1O` [ETOPOSIDE] had an IC50 in [2] of 6.41 µM.

Take `CN[C@H](CC(C)C)C(=O)N[C@H]1C(=O)N[C@@H](CC(N)=O)C(=O)N[C@H]2C(=O)N[C@H]3C(=O)N[C@H](C(=O)N[C@H](C(=O)O)c4cc(O)cc(O)c4-c4cc3ccc4O)[C@H](O)c3ccc(c(Cl)c3)Oc3cc2cc(c3O[C@@H]2O[C@H](CO)[C@@H](O)[C@H](O)[C@H]2O[C@H]2C[C@](C)(N)[C@H](O)[C@H](C)O2)Oc2ccc(cc2Cl)[C@H]1O` [VANCOMYCIN]: the MIC in assay [3] is 0.5 µg/mL (≈ 0.345 µM).

For `CC(C)=C[C@H]1C[C@H](C)[C@]2(CC[C@]3(C)C[C@@H]4C(C)=CC(=O)[C@H]4/C(C=O)=C\C[C@H]32)O1` [3-ANHYDRO-6-EPI-OPHIOBOLIN A], the MIC in assay [4], in [1], in assay [5], in assay [6] and in [3] was greater than 100 µg/mL throughout. Besides, the IC50 in assay [2] stood at 47.1 µM; in [7] it was 35.6 µM.

`CC(C)=C[C@H]1C[C@H](C)[C@]2(CC[C@]3(C)C[C@@H]4C(C)=CC(=O)[C@]4(O)/C(C=O)=C\C[C@H]32)O1`: the viability at 0.75 µg/mL in assay [8] turned out to be 61.5%; in assay [24], 62.8%. Besides, the minimum inhibitory concentration (MIC) in [4] is 12.5 µg/mL (≈ 31.4 µM); in assay [1] it was 50 µg/mL (≈ 125 µM); in assay [5], greater than 100 µg/mL; in assay [6], 12.5 µg/mL (≈ 31.4 µM); in assay [3] it was 12.5 µg/mL (≈ 31.4 µM). The viability at 0.25 µg/mL in assay [9] worked out at 96.6%. For the same molecule, the viability at 0.5 µg/mL is 88.3% in assay [10] and 87.5% in assay [23]. The viability at 2 µg/mL in [11] was determined as 25.9%; in [28], 32.6%; in assay [29] it was 26.9%. The outcome in [12] and in [19] was Active. Besides, the figures for the viability at 4 µg/mL in [13] and in assay [15] were 2.45% and 1.78%, respectively. Moreover, the values for the Activity result in [14] and in assay [25] were “tde” and “Dose-dependent effect”, respectively. For the same molecule, the results for the IC50 in assay [2] and in [7] were 6.49 µM and 4.06 µM, respectively. In addition, the viability at 1 µg/mL in assay [16] came to 50.2%; in assay [17], 27.5%; in assay [18], 49.6%; in assay [20] it was 56%; in [21], 69.7%; in [22], 91.3%. Also, in assay [27], the viability at 1 µg/mL worked out at 5.86%. The outcome in assay [26] was inactive.

Turning to `CC(C)=C[C@H]1C[C@H](C)[C@]2(CC[C@]3(C)C[C@@H]4C(C)=CC(=O)[C@@H]4/C(C=O)=C\C[C@H]32)O1`, the MIC in [4], in assay [1], in assay [5], in assay [6] and in [3] was greater than 100 µg/mL each time. Besides, the values for the IC50 in assay [2] and in assay [7] were 55.7 µM and 39.5 µM, respectively.

In the case of `O=C(O)c1cn(C2CC2)c2cc(N3CCNCC3)c(F)cc2c1=O` [CIPROFLOXACIN], in [5], the lowest concentration to inhibit growth (MIC) was 1 µg/mL (≈ 3.02 µM).
